Measured values published in patent publication US7744927B2, “Methods of promoting hematopoietic and mesenchymal cell proliferation and differentiation” (University of Southern California, priority 1997, dated 2010).

What was measured:
[1] = test system: murine HPC; test: Murine HPC colony formation in semi-solid culture with colony stimulating factors; format: cell-based, C57B1/6 mice; details: for macroscopic colonies: day 14, enriched HPC from untreated (normal) mice
Description: HPC were harvested from C57B1/6 mice by immunomagnetic affinity chromatography and placed in semi-solid cultures with optimal growth medium. At various times after initiation of culture, the formation of colonies and the size of the colonies (number of cells/colony) was assessed microscopically.
Female C57B1/6 mice were purchased from Simonson and used as a source of bone marrow cells in this study. The bone marrow was harvested, either from untreated mice or from mice injected with 5-fluorouracil (5-FU) (3 mg/mouse; approximately 150 mg/kg) in the tail vein 48 hours before harvest, from the femur and tibia of mice by flushing with phosphate buffered saline (PBS), pH 7.4, containing 2% fetal bovine serum (FBS) with a 21-gauge needle. The eluant from the flushing was centrifuged and the pellet was resuspended at 4×10^7 nucleated cells/ml in PBS containing PBS containing 2% FBS and 5% normal rat serum.
The reagents for immunomagnetic labeling were purchased from Stem Cell Technologies, Inc. (Vancouver, BC). Biotin-labeled monoclonal antibodies to the following murine lineage-specific cell surface antigens were included in a cocktail for HPC enrichment and used according to the manufacturer's instructions: CD5 (Ly-1), CD45-R (B220), CD11b (Mac-1), Myeloid Differentiation Antigen (Gr-1) and Erythroid Cells (TER 119) Ten μl of antibody cocktail was added for each of the 2 sets of bone marrow (normal and 5-FU-treated), mixed and allowed to incubate at 4° C. for 15 minutes. The cells were then resuspended at 4×10^7 cells/ml in PBS containing 2% FBS. The antibody cocktail was then washed out and 100 μl anti-biotin tetramer was added for each ml of cells. The suspension was mixed and incubated at 4° C. for 15 minutes. Sixty μl of magnetic colloid was then added for each ml of cells, the combination was mixed and incubated at 4° C. for 15 minutes to yield the immunomagnetically-labeled bone marrow cells.
A column containing a stainless steel matrix was prepared by washing the matrix with PBS followed by washing with PBS containing 2% protein. […]

[2] = test system: Murine Peritoneal Macrophages; test: Phagocytosis of opsonized yeast by murine peritoneal macrophages; format: cell-based, C57B1/6 mice; details: for # Macrophages with Yeast, Yeast # 0 / # Macrophages with Yeast, Yeast # 1-3 / # Macrophages with Yeast, Yeast # 4-6 / # Macrophages with Yeast, Yeast # 7-9 / # Yeast/MO / % Ingesting: 4 hours
Description: Resident peritoneal macrophages have very little phagocytic activity. Exposure of macrophages to inflammatory or activating agents will increase this macrophage function. Resident peritoneal macrophages were harvested from C57B1/6 mice or Sprague Dawley rats and resuspended at a concentration of 1×10^6 cells/ml in phosphate buffered saline (PBS). Five separate 0.5 ml cell aliquots were placed on a glass coverslip in a 35 mm petri dish. Prior to incubation, either 0.5 ml of PBS, AII, or AII analogues or fragments at between 1-1000 ug/ml final concentration was added to the individual cover slips. The dishes containing the cover slips were then incubated at 37° C. for 4 hours, after which the cover slips were washed 3 to 6 times with PBS. Opsonized yeast particles (Sigma Chemical Co.) (yeast opsonized with adult serum from the same species as that under study) were added to the cover slips and incubated for 2 hours, after which the cover slips were again washed with PBS and inverted onto a glass slide. The number of macrophages that ingested yeast and the number of yeast per macrophage ingested was then determined microscopically. At least 100 macrophages per coverslip were counted. The data from this study are summarized in Tables 3 and 4 and FIGS. 1 and 2.

[3] = test system: rabbit corneal eye; details: in vivo; cited from earlier work

With “Asp-Arg-Val-Tyr-Ile-His-Pro-Phe [AII, known pressor agent, commercially available]” the “HPC colony size / HPC proliferation” value ([1]; 0 to 100 μg/ml, normal and 5-FU treated bone marrow) was “HPC colony size increases proportionately”, the macroscopic colonies ([1]; 10 μg/ml) was 18 and the macroscopic colonies ([1]; 100 μg/ml) was 10. For the same substance, the “phagocytic capability of peritoneal macrophages” value ([2]; 10 μg/ml or greater) was “tremendously increased”, the “# Macrophages with Yeast, Yeast # 0” value ([2]; AII 1 μg/ml) was 100 and the “# Macrophages with Yeast, Yeast # 1-3” value ([2]; AII 1 μg/ml) was 1. The “# Macrophages with Yeast, Yeast # 4-6” value ([2]; AII 1 μg/ml) was 0, the “# Macrophages with Yeast, Yeast # 7-9” value ([2]; AII 1 μg/ml) was 0 and the “# Yeast/MO” value ([2]; AII 1 μg/ml) was 0.01. The “% Ingesting” value ([2]; AII 1 μg/ml) was 1%, the “# Macrophages with Yeast, Yeast # 0” value ([2]; AII 10 μg/ml) was 100 and the “# Macrophages with Yeast, Yeast # 1-3” value ([2]; AII 10 μg/ml) was 3. For the same substance, the “# Macrophages with Yeast, Yeast # 4-6” value ([2]; AII 10 μg/ml) was 4, the “# Macrophages with Yeast, Yeast # 7-9” value ([2]; AII 10 μg/ml) was 0 and the “# Yeast/MO” value ([2]; AII 10 μg/ml) was 0.24. The “% Ingesting” value ([2]; AII 10 μg/ml) was 6.5%, the “# Macrophages with Yeast, Yeast # 0” value ([2]; AII 100 μg/ml) was 100 and the “# Macrophages with Yeast, Yeast # 1-3” value ([2]; AII 100 μg/ml) was 10. The “# Macrophages with Yeast, Yeast # 4-6” value ([2]; AII 100 μg/ml) was 10, the “# Macrophages with Yeast, Yeast # 7-9” value ([2]; AII 100 μg/ml) was 0 and the “# Yeast/MO” value ([2]; AII 100 μg/ml) was 0.58. For the same substance, the “# Yeast/MO” value ([2]; AII 1000 μg/ml (highest concentration)) was 1, the “# Macrophages with Yeast, Yeast # 0” value ([2]; AII 1000 μg/ml) was 100 and the “# Macrophages with Yeast, Yeast # 1-3” value ([2]; AII 1000 μg/ml) was 20. For the same substance, the “# Macrophages with Yeast, Yeast # 4-6” value ([2]; AII 1000 μg/ml) was 20, the “# Macrophages with Yeast, Yeast # 7-9” value ([2]; AII 1000 μg/ml) was 0 and the angiogenic activity [3] was “angiogenic”.
